Assay results: the supplement of paper PMC10307832

Tests used:
Test in all cases: relative viability (nuclei count vs DMSO), 5 days (fraction); higher = more cells survive
[1] = compound: C1=CC=C(C(=C1)C2=CC=C(C=C2)C3=CSC4=C3C(=C(C(=O)N4)C#N)O)O + Nc1ncn([C@H]2C[C@H](O)[C@@H](CO)O2)c(=O)n1 [Decitabine] (partner 2 µM)
Summary of the method: (§1)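 After 5 days of treatment, lung cancer cells in 1536-well plates were fixed and stained in a single step (final 0.05% Triton X-100, 1% formaldehyde, 1 ug/ml Hoechst) and their nuclei counted on 4× images. Treatment had been applied by pin tool the day after seeding as one drug alone or as a fixed anchor-drug dose with five library-drug doses (not always all listed) in √10 steps. Relative viability is the nuclei count of treated wells divided by that of vehicle wells, and values are medians of duplicate plates.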

[2] = compound: CC1=CN2C(=O)C=C(N=C2C(=C1)C(C)NC3=CC=CC=C3)N4CCOCC4 [TGX 221] + Cc1nc(Nc2ncc(C(=O)Nc3c(C)cccc3Cl)s2)cc(N2CCN(CCO)CC2)n1 [Dasatinib] (partner 0.075 µM)
Summary of the method: as §1

[3] = compound: O=C(CCCCCCNC(=O)c1cnc(N(c2ccccc2)c2ccccc2)nc1)NO [Ricolinostat] + CC(=O)Nc1cccc(-n2c(=O)n(C3CC3)c(=O)c3c(Nc4ccc(I)cc4F)n(C)c(=O)c(C)c32)c1 [Trametinib] (partner 0.02 µM)
Summary of the method: as §1

[4] = compound: O=C(CCCCCCNC(=O)c1cnc(N(c2ccccc2)c2ccccc2)nc1)NO [Ricolinostat] + CC(C)C[C@H](NC(=O)[C@H](Cc1ccccc1)NC(=O)c1cnccn1)B(O)O [Bortezomib] (partner 0.002 µM)
Summary of the method: as §1

Cell Line	relative viability ([1]; first compound 0.08 µM)	relative viability ([1]; first compound 0.253 µM)	relative viability ([1]; first compound 0.8 µM)	relative viability ([1]; first compound 2.53 µM)	relative viability ([1]; first compound 8 µM)	relative viability ([2]; first compound 0.08 µM)	relative viability ([2]; first compound 0.253 µM)	relative viability ([2]; first compound 0.8 µM)	relative viability ([2]; first compound 2.53 µM)	relative viability ([2]; first compound 8 µM)	relative viability ([3]; first compound 0.08 µM)	relative viability ([3]; first compound 0.253 µM)	relative viability ([3]; first compound 0.8 µM)	relative viability ([3]; first compound 2.53 µM)	relative viability ([4]; first compound 0.08 µM)	relative viability ([4]; first compound 0.253 µM)	relative viability ([4]; first compound 0.8 µM)	relative viability ([4]; first compound 2.53 µM)
201T	0.844	0.826	0.875	0.894	0.916	0.596	0.584	0.54	0.508	0.541	0.713	0.709	0.689	0.772	0.989	1.11	1.09	1.12
A549		0.315	0.207	0.306	0.211													
A-427	0.517	0.595	0.567	0.563	0.656	0.696	0.735	0.671	0.657	0.692	0.652	0.776	0.723	0.654	0.89	0.998	0.933	0.736
ABC-1	1.4	1.03	1.03	0.899	1.07	0.531	0.569	0.682	0.472	0.577					0.311	0.302	0.25	0.264
BEN	0.605	0.745	0.771	0.717	0.653	0.385	0.266	0.317	0.328	0.293	0.816	0.905	0.828	0.796	0.781	0.694	0.567	0.609
CAL-12T						0.365	0.34	0.383	0.31	0.373	0.266	0.32	0.456	0.395	0.814	0.833	0.816	0.937
COR-L23	0.469	0.54	0.429	0.431	0.417	0.483	0.457	0.538	0.488	0.431	0.485	0.582	0.625	0.49	0.919	0.894	0.951	0.464
COR-L 105	0.715	0.684	0.793	0.664	0.564	0.286	0.252	0.264	0.406	0.23	0.376	0.471	0.547	0.543	0.844	0.885	0.946	0.993
Calu-6															1.08	1.01	0.982	0.957
ChaGo-K-1	0.507	0.58	0.587	0.535	0.506	0.548	0.536	0.615	0.494	0.575	0.894	0.865	0.848	0.802	1	1.18	0.959	0.9
EBC-1															0.49	0.458	0.386	0.263
EKVX	0.396	0.412	0.857	0.695	0.326	0.399	0.523	0.432	0.493	0.365	0.283	0.282	0.426	0.368		1.03	1.16	0.83
EMC-BAC-2	0.893		0.979	0.967	0.933	0.279	0.306	0.321	0.315	0.351	0.809	0.895	0.819	0.74	0.957	1.12	1.06	0.941
EPLC-272H	0.385		0.329	0.356	0.35	0.392	0.29	0.351	0.302	0.287		0.284	0.313	0.26		0.751	0.848	0.871
H3255	0.481	0.618		0.644	0.585	0.257	0.417	0.355	0.307	0.342	0.571	0.644	0.677	0.76	0.516	0.727	0.678	0.617
HARA	0.592	0.769	0.596	0.548	0.459	0.207	0.254	0.289	0.26	0.315	0.704	0.804	0.529	0.644	1.05	1.02	1.1	0.638
HCC-15	0.444	0.671	0.625	0.814	0.494	0.595	0.575	0.657	0.564	0.608	0.352	0.397	0.379	0.333	0.897	0.987	0.983	0.925
HCC-44	1.01	1.05	0.985	0.895	0.934						1.11	1.02	1.02	1.04	0.904	0.887	0.904	0.663
HCC-78	0.75	0.82	0.655	0.808	0.642	0.405	0.324	0.231	0.235	0.246		0.782	0.768	0.601		0.475	0.455	0.686
HCC-366		0.46	0.343	0.332	0.358	0.693	0.606	0.639	0.586	0.55	0.372	0.32	0.314	0.342	0.906	1.11	0.904	0.639
HCC-827	0.318	0.361	0.277	0.351	0.313	0.28	0.296	0.387	0.273	0.15	0.49	0.527	0.581	0.584	1.01	0.981	0.995	1.03
